Assay results: PubChem BioAssay AID2060483 (Molecular Pharmacology Branch, DTP, NCI, 2025)
pIC50: −log10 of the molar value.

Tested on: K24384-001-R-PDC complex spheroids, viability
Assay: Anticancer human tumor K24384-001-R-PDC patient-derived pancreatic adenocarcinoma cell line growth inhibition [GQUAD]
Conditions: for pIC50: curve of first compound; for viability, T/C: stronger effect = lower value
Summary of the method: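 Tumor cells were grown as complex spheroids with HUVEC endothelial cells and mesenchymal stem cells as stroma. G-quadruplex stabilizers were combined with targeted agents over half-log dilutions from near the clinical Cmax, or from 10 microM.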

[1] = second compound 0.0316 µM, first compound 0.0316 µM
[2] = second compound 0.0316 µM, first compound 0.1 µM
[3] = second compound 0.0316 µM, first compound 0.316 µM
[4] = second compound 0.0316 µM, first compound 1 µM
[5] = second compound 0.0316 µM, first compound 3.16 µM
[6] = second compound 0.0316 µM, first compound 10 µM
[7] = second compound 0.1 µM, first compound 0.0316 µM
[8] = second compound 0.1 µM, first compound 0.1 µM
[9] = second compound 0.1 µM, first compound 0.316 µM
[10] = second compound 0.1 µM, first compound 1 µM
[11] = second compound 0.1 µM, first compound 3.16 µM
[12] = second compound 0.1 µM, first compound 10 µM
[13] = second compound 0.316 µM, first compound 0.0316 µM
[14] = second compound 0.316 µM, first compound 0.1 µM
[15] = second compound 0.316 µM, first compound 0.316 µM
[16] = second compound 0.316 µM, first compound 1 µM
[17] = second compound 0.316 µM, first compound 3.16 µM
[18] = second compound 0.316 µM, first compound 10 µM
[19] = second compound 1 µM, first compound 0.0316 µM
[20] = second compound 1 µM, first compound 0.1 µM
[21] = second compound 1 µM, first compound 0.316 µM
[22] = second compound 1 µM, first compound 1 µM
[23] = second compound 1 µM, first compound 3.16 µM
[24] = second compound 1 µM, first compound 10 µM
[25] = second compound 3.16 µM, first compound 0.0316 µM
[26] = second compound 3.16 µM, first compound 0.1 µM
[27] = second compound 3.16 µM, first compound 0.316 µM
[28] = second compound 3.16 µM, first compound 1 µM
[29] = second compound 3.16 µM, first compound 3.16 µM
[30] = second compound 3.16 µM, first compound 10 µM
[31] = second compound 10 µM, first compound 0.0316 µM
[32] = second compound 10 µM, first compound 0.1 µM
[33] = second compound 10 µM, first compound 0.316 µM
[34] = second compound 10 µM, first compound 1 µM
[35] = second compound 10 µM, first compound 3.16 µM
[36] = second compound 10 µM, first compound 10 µM
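Note: spheroids exposed to compounds for seven days.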

With `CC(=O)O[C@H]1C(=O)[C@@]2(C)[C@H]([C@H](OC(=O)c3ccccc3)[C@]3(O)C[C@H](OC(=O)[C@H](O)[C@@H](NC(=O)c4ccccc4)c4ccccc4)C(C)=C1C3(C)C)[C@]1(OC(C)=O)CO[C@@H]1C[C@@H]2O` + CN(C)c1ccc(Nc2c3ccc(NC(=O)CCN4CCCC4)cc3nc3cc(NC(=O)CCN4CCCC4)ccc23)cc1 the pIC50 (second compound 0.0316 µM) was > 7.50, the pIC50 (second compound 0.1 µM) was > 7.50 and the pIC50 (second compound 0.316 µM) was > 7.50. The pIC50 (second compound 1 µM) was > 7.50, the pIC50 (second compound 3.16 µM) was > 7.50 and the pIC50 (second compound 10 µM) was > 7.50. It also gave a viability, T/C [1] of 32.2%, a viability, T/C [2] of 22.9% and a viability, T/C [3] of 20.5%. The viability, T/C [4] was 20.1%, the viability, T/C [5] was 22.4% and the viability, T/C [6] was 25.3%. The viability, T/C [7] was 34.5%, the viability, T/C [8] was 22.1% and the viability, T/C [9] was 18.5%. It also gave a viability, T/C [10] of 21.3%, a viability, T/C [11] of 20.7% and a viability, T/C [12] of 25.7%. The viability, T/C [13] was 37.3%, the viability, T/C [14] was 22.4% and the viability, T/C [15] was 17.6%. For the same compound, the viability, T/C [16] was 19.8%, the viability, T/C [17] was 19.5% and the viability, T/C [18] was 25.7%. The viability, T/C [19] was 33.4%, the viability, T/C [20] was 23.7% and the viability, T/C [21] was 19.3%. The viability, T/C [22] was 19.9%, the viability, T/C [23] was 26.1% and the viability, T/C [24] was 27.5%. For the same compound, the viability, T/C [25] was 29.4%, the viability, T/C [26] was 20.7% and the viability, T/C [27] was 24.4%. It also gave a viability, T/C [28] of 17.4%, a viability, T/C [29] of 23.2% and a viability, T/C [30] of 30.1%. The viability, T/C [31] was 38.2%, the viability, T/C [32] was 26.4% and the viability, T/C [33] was 24.9%. The viability, T/C [34] was 24.5%, the viability, T/C [35] was 33.9% and the viability, T/C [36] was 40.9%.
With `CC1COCCN1c1cc(C2(S(C)(=N)=O)CC2)nc(-c2ccnc3[nH]ccc23)n1` (centres undefined) + Cc1cnc(CNC(=O)c2c(=O)c3ccc(N4CCCN(C)CC4)nc3n3c2sc2ccccc23)cn1 the pIC50 (second compound 0.0316 µM) was 5.60, the pIC50 (second compound 0.1 µM) was 5.66 and the pIC50 (second compound 0.316 µM) was 5.28. The pIC50 (second compound 1 µM) was > 7.50, the pIC50 (second compound 3.16 µM) was > 7.50 and the pIC50 (second compound 10 µM) was > 7.50. For the same compound, the viability, T/C [1] was 85.6%, the viability, T/C [2] was 100% and the viability, T/C [3] was 83.5%. For the same compound, the viability, T/C [4] was 55.7%, the viability, T/C [5] was 55% and the viability, T/C [6] was 30.4%. The viability, T/C [7] was 69%, the viability, T/C [8] was 90.7% and the viability, T/C [9] was 64.5%. It also gave a viability, T/C [10] of 56.8%, a viability, T/C [11] of 50.5% and a viability, T/C [12] of 39.6%. It also gave a viability, T/C [13] of 57.8%, a viability, T/C [14] of 64.2% and a viability, T/C [15] of 56.1%. It also gave a viability, T/C [16] of 52.3%, a viability, T/C [17] of 59.8% and a viability, T/C [18] of 40.1%. For the same compound, the viability, T/C [19] was 41.5%, the viability, T/C [20] was 45.2% and the viability, T/C [21] was 45.3%. It also gave a viability, T/C [22] of 42.7%, a viability, T/C [23] of 43.7% and a viability, T/C [24] of 32.5%. For the same compound, the viability, T/C [25] was 41.9%, the viability, T/C [26] was 50.4% and the viability, T/C [27] was 37.8%. For the same compound, the viability, T/C [28] was 43.1%, the viability, T/C [29] was 37.6% and the viability, T/C [30] was 25.8%. For the same compound, the viability, T/C [31] was 34.5%, the viability, T/C [32] was 23.2% and the viability, T/C [33] was 31.9%. The viability, T/C [34] was 35.2%, the viability, T/C [35] was 35.5% and the viability, T/C [36] was 21.6%.
